The record followed here is publication PMC12627862, “Therapeutic targeting of endothelial calcium signaling accelerates the resolution of lung injury” (Signal Transduction and Targeted Therapy, 2025).

Starred links: 1 amine or outer side, 2 acyl side, 3 side chain; linkers in the order of their positions; H or OH if unused. Non-standard residues stand in square brackets, D forms with d. Residues, ends and D or L forms follow the SMILES beside them. ξ: configuration not given here. Oic = O=C(O)[C@@H]1C[C@@H]2CCCC[C@@H]2N1; GABOB(3R) = O=C(C[C@@H](O)CN[*:1])[*:2]; tBuAla = CC(C)(C)C[C@H](N)C(=O)O; ξVal(3-OH) = CC(C)(O)C(N)C(=O)O; 4Amb = NCc1ccc(C(=O)O)cc1

The subject of this assay is CD1 mice challenged with LPS. Put plainly: Endotoxemia model, sublethal LPS in oil-preloaded mice. In kind it is in vivo, mouse. The conditions noted are these: LPS 4 mg/kg i.p. The text has this:
Considering the diverse etiological factors contributing to the pathogenesis of ARDS[29], we first assessed the therapeutic benefits of VT-109 in treating pulmonary vascular leakage in a murine model of endotoxemia-induced hyperinflammatory ARDS[30]. We induce a systemic inflammatory response by administering lipopolysaccharide (LPS), an endotoxin of the outer membrane of gram-negative bacteria, which elicits strong immune responses in animals, causing endothelial barrier breakdown and associated pulmonary edema, lung injury, morbidity, and mortality.
Using this model, we implemented two different i.v. treatment protocols with VT-109 (Fig. 3a, b). In cohort 1, mice received three daily doses of 1 µmol/kg bw VT-109 starting 24 hours after LPS challenge at the onset of lung injury. […] Cohort 3 mice received vehicle daily starting at 24 hours of LPS challenge. […] This inhibitory effect of VT-109 on neutrophil recruitment, a hallmark of lung inflammation and poor clinical prognosis, was consistent with our previous work[3]. Overall, our findings indicate that treating pulmonary vascular leakage reduces lung inflammation, in part, by restricting neutrophil transmigration through the endothelial barrier. […]
Evans’ blue-labeled albumin extravasation. […] The optical density of the supernatant was measured spectrophotometrically at 620 nm (Evans Blue) and 740 nm (hemoglobin correction), with the dye content normalized to the wet weight of the lungs. Corrections for hemoglobin were made as follows: Corrected absorbance (Evans blue) = Absorbance (620) - (1.426 × Absorbance (740) + 0.03). […]
Myeloperoxidase (MPO) measurements. […] MPO levels in the samples were determined using the o-dianisidine-H₂O₂ technique following enzyme extraction with hexadecyl-trimethylammonium bromide (HTAB). The absorbance change was measured at […] over a 3-minute period, and the data were expressed as ΔOD460/min/g lung tissue.

Take `CC(C)(C)C[C@@H]1NC(=O)C[C@@H](O)CNC(=O)[C@@H]2C[C@@H]3CCCC[C@@H]3N2C(=O)[C@H](CC(C)(C)C)NC(=O)c2ccc(cc2)CNC(=O)C(C(C)(C)O)NC(=O)[C@@H](Cc2ccccc2)NC1=O` (stereo partly drawn) [compound 109, (1^2S,1^3aS,1^7aS,3S,10S,13R,16S,20R)-13-benzyl-20-hydroxy-10-(2-hydroxypropan-2-yl)-3,16-dineopentyl-1^2,1^3,1^3a,1^4,1^5,1^6,1^7,1^7a-octahydro-1^1H-4,8,11,14,17,22-hexaaza-1(1,2)-indola-6(1,4)-benzenacyclotricosaphane-2,5,9,12,15,18,23-heptaone.] (cyclo([4Amb][tBuAla][Oic][GABOB(3R)][tBuAla][dF][ξVal(3-OH)])): the “pulmonary edema (EBA extravasation)” value is, setting by setting: (cohort 1: three daily i.v. doses of 1 µmol/kg bw starting 24 hours after LPS) “promptly blocked the development of pulmonary edema”; (cohort 2: two daily i.v. doses of 1 µmol/kg bw starting 72 hours after LPS) “accelerated the resolution of pulmonary edema”. Also, the “myeloperoxidase (MPO) in the lung tissue” value (regardless of the treatment initiation time) is recorded as “consistently lowered”.
